Series [1] in a line: Blood clearance in rat at 1 mg/kg, iv or 3 mg/kg, po by LC-MS/MS method. In kind it is ADME, organism-based.
Series [2] concerns Mus musculus. In words: Reduction in PGD2 level in C57/BL6/J mouse peritoneal lavage supernatants at 30 mg/kg, po measured 40 mins after compound 48/80 injection by enzyme immunoassay pre-treated 30 mins before compound 48/80 injection. The arrangement: dose 30 mg/kg. Format: functional, organism-based.
Series [3] is described as follows: Tmax in rat at 3 mg/kg, po by LC-MS/MS method. Format: ADME, organism-based. The arrangement: dose 3 mg/kg, route oral. The note with it: in vivo.
A short description of series [4]: Protein binding in rat whole blood at 1 mg/kg, iv or 3 mg/kg, po by LC-MS/MS method. The settings on record: read-out: PB (converted). Format: ADME, organism-based.
A short description of series [5]: Oral bioavailability in rat at 3 mg/kg by LC-MS/MS method. Format: ADME, organism-based. The settings on record: in vivo.
A short description of series [6]: Half life in rat at 1 mg/kg, iv or 3 mg/kg, po by LC-MS/MS method. In kind it is ADME, organism-based. The settings on record: in vivo.
Series [7] concerns the target T1, Hematopoietic prostaglandin D synthase (Homo sapiens, UniProt O60760). Briefly: Inhibition of human hematopoietic prostaglandin D2 synthase at 10 nM by fluorescence polarisation assay.
Series [8] in a line: Aqueous solubility in fed simulated intestinal fluid at pH 6.5. In kind it is physicochemical.
The nature of series [9]: Volume of distribution at steady state in rat at 1 mg/kg, iv or 3 mg/kg, po by LC-MS/MS method. In kind it is ADME, organism-based. The settings on record: in vivo, read-out: Vdss.
Series [10] deals with T1, Hematopoietic prostaglandin D synthase. In words: Inhibition of human hematopoietic prostaglandin D2 synthase by rapid fire mass spectrometry assay.
Series [11] concerns Rattus norvegicus. In words: fCmax in rat at 3 mg/kg, po by LC-MS/MS method. The arrangement: dose 3 mg/kg, route oral. The settings on record: in vivo. Format: ADME, organism-based.
Series [12] is described as follows: Aqueous solubility in fasted simulated intestinal fluid at pH 6.5. In kind it is physicochemical.
Series [13] is described as follows: Fraction unbound in rat at 1 mg/kg, iv or 3 mg/kg, po by LC-MS/MS method. Format: ADME, organism-based. The settings on record: in vivo.
Series [14] can be described thus: Cmax in rat at 3 mg/kg, po by LC-MS/MS method. In kind it is ADME, organism-based. The arrangement: dose 3 mg/kg, route oral. The note with it: in vivo.
Series [15] addresses T1, Hematopoietic prostaglandin D synthase. Briefly: Inhibition of hematopoietic prostaglandin D2 synthase in IgE and IL-5 primed human LAD2 cells assessed as reduction in PGD2 production by mass spectrometry. In kind it is cell-based.
Series [16] is described as follows: Aqueous solubility in simulated gastric fluid at pH 1.6. Format: physicochemical.
Series [17] in a line: AUC (0 to infinity) in rat at 1 mg/kg, iv or 3 mg/kg, po by LC-MS/MS method. In kind it is ADME, organism-based. The settings on record: plasma.
A short description of series [18]: Aqueous solubility in water. Format: physicochemical.
Series [19] has as its target T1, Hematopoietic prostaglandin D synthase. Briefly: Inhibition of human hematopoietic prostaglandin D2 synthase by fluorescence polarisation assay.
The target is the same in series [20]. Briefly: Inhibition of human hematopoietic prostaglandin D2 synthase at 100 uM by fluorescence polarisation assay.
Series [21] shares this target. In words: Inhibition of human hematopoietic prostaglandin D2 synthase at 30 uM by fluorescence polarisation assay.

pIC50: −log10 of the molar value. In brackets after ≈: the same amount, converted by molar mass. Activity calls are given as the source filed them. No cut-off for these calls is given here.

T1 sequence (O60760 whole entry): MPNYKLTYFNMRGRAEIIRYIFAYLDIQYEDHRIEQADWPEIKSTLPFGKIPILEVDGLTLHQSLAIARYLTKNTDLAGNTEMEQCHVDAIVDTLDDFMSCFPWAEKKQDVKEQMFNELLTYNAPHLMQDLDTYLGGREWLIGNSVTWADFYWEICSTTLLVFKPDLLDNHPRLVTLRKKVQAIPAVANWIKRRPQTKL

In turn, `O=C(NC1CCCC1)N1Cc2cc(-c3c[nH]nc3C3CC3)cnc2C1` had a clearance in series [1] of 1.98 L/h/kg. For the same compound, the result in series [2] was Active. In series [3], the Tmax was found to be 0.5 h. Also, the fraction unbound in series [4] and in [13] was 0.055 each time. For the same compound, in series [5], the bioavailability amounted to 19%. Further, in [6], the half-life is 2.2 h. The inhibition in series [7] came to 66%. Further, the solubility is 0.136 mg/mL (≈ 403 µM) in [8], 0.109 mg/mL (≈ 323 µM) in [12], 0.885 mg/mL (≈ 2620 µM) in [16] and 0.052 mg/mL (≈ 154 µM) in series [18]. In series [9], the Vd is 2.8 L/kg. In addition, the pIC50 was 7.40 in series [10], 6.50 in [15] and over 8.00 in series [19]. For the same compound, in [11], the fCmax was 30 nM. In [14], this compound yielded a Cmax of 0.196 µg/mL. Also, in [17], the AUC(0-inf) is 0.295 µg·h/mL.

With `Cc1cn(NC(=O)c2cnc(-c3ccccn3)nc2)c2ccc(F)cc12`, the solubility was under 0.001 mg/mL in series [8], 0.0046 mg/mL (≈ 13.2 µM) in series [12], 0.203 mg/mL (≈ 584 µM) in series [16] and 0.0044 mg/mL (≈ 12.7 µM) in series [18].

In the case of `c1cncc(-c2cn[nH]c2)c1`, the inhibition in series [20] was 58%.

Turning to `c1nc(NC2CCCC2)c2cc[nH]c2n1`, the pIC50 in series [19] is 6.30.

For `Cc1n[nH]cc1-c1ccc(C#N)cc1`, the inhibition in [21] was 52%.

Regarding `Cn1nnnc1N1CCC(NC(=O)c2ccc(-c3cccc(F)c3)nc2)CC1`, the solubility was 0.044 mg/mL (≈ 115 µM) in series [8], 0.0312 mg/mL (≈ 81.8 µM) in [12], 0.0489 mg/mL (≈ 128 µM) in [16] and 0.0165 mg/mL (≈ 43.3 µM) in [18].

Consider `c1cncc(-c2c[nH]nc2C2CC2)c1`, for which the pIC50 in [19] is 4.77.

For the compound `CCNC(=O)N1Cc2cc(-c3c[nH]nc3C3CC3)cnc2C1`, the pIC50 in [10] was 6.30; in series [15] it was 5.40; in series [19], 7.40.

Consider `c1nc(NC2CCCC2)c2cn[nH]c2n1`, for which the pIC50 in series [19] is 5.07.

The record behind these values is ChEMBL document CHEMBL3132782, “Identification of orally bioavailable small-molecule inhibitors of hematopoietic prostaglandin D2 synthase using X-ray fragment based drug discovery” (Medchemcomm, 2014).
